Patent US20230373938A1, “BENZOTHIAZOLE MEROTERPENOID COMPOUND AND DERIVATIVE THEREOF, AND PREPARATION METHOD THEREFOR AND USE THEREOF” (THIRD INSTITUTE OF OCEANOGRAPHY, MINISTRY OF NATURAL …, priority 2020, published 2023)

Experiments:
RXRalpha = target: T1, RXRalpha (Homo sapiens, UniProt P19793); test: RXRalpha dual-luciferase reporter gene assay (transcriptional activity); type: cell-based; settings: 293T cells, in combination with agonist 9-cis-RA; dosed 12.5, 25, 50 μM for 12 h
T1 construct: expressed in transfected cells; host or cells: Human embryonic kidney cells (293T)
T1 sequence (P19793 1-462): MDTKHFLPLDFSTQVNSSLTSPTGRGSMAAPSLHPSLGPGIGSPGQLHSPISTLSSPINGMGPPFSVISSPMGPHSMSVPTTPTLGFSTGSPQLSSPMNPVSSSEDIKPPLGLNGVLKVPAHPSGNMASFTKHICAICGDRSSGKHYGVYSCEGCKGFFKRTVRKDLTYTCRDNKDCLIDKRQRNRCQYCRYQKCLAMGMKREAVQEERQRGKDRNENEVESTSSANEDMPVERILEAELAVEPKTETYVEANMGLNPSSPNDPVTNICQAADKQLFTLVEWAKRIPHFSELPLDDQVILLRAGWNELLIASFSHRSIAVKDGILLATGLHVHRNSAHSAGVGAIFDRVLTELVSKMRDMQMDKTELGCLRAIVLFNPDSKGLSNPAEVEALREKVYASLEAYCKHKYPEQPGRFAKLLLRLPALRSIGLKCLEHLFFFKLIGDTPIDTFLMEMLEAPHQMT
Excerpt: In this embodiment, a dual-luciferase reporter (DLR) assay system consisting of firefly luciferase (FL) reporter gene and Rellina luciferase (RL) reporter gene is used. The RL reporter gene is used as an internal control to normalize measurement results of the FL reporter gene. In cells lacking endogenous RXRalpha and necessary components for downstream signal transduction, a receptor RXRalpha and reporter gene containing RXRalpha response elements are introduced by transfection, so as to simply simulate a transcriptional activation process of a receptor in vivo.
In this embodiment, the following three groups are set: • Negative control group: culture solution of an equal amount, 0.1% DMSO, containing cells, without the compounds as represented by formulas I to III; • Positive control group: culture solution of an equal amount, added with an RXRalpha agonist 9-cis-retinoic acid with or without an antagonist UVI3003 respectively; • Treatment group: cell culture solutions added with an RXRalpha agonist 9-cis-retinoic acid and the compounds as represented by formulas I to III respectively.
Specific steps include: • (1) Cell culture and preparation of test solution • Human embryonic kidney cells (293T) are cultured in a DMEM medium containing 10% fetal bovine serum (FBS) in an incubator containing 5% CO2 at 37° C., and passaged regularly based on growth law of the cells. […]

RXRalpha-LBD protein = target: T2, RXRalpha-LBD protein (Homo sapiens, UniProt P19793); test: Biacore (surface plasmon resonance) binding to RXRalpha-LBD protein; settings: Biacore T200, CM5 chip
T2 sequence (P19793 227-458 limits assumed): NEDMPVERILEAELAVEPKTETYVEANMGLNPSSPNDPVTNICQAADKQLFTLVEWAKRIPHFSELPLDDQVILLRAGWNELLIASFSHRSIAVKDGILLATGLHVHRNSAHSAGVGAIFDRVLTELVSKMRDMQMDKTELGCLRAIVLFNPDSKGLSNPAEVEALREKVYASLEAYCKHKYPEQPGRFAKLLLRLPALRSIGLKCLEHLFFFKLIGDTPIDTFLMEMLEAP
Experimental: A purified nuclear receptor RXRalpha-LBD protein is coupled with a CM5 chip of Biacore. Then the compounds to be tested are diluted with PBS to prepare solutions at different concentrations before sampling. When samples to be tested flow over the surface of the chip, the binding between biomolecules results in an increase in surface mass of a biosensor, so that refractive index changes. By monitoring angular variation of SPR, kinetic binding and dissociation constants, affinity and specificity of analytes can be automatically obtained. A BiacoreT200 detector can detect interaction between a target protein and the samples to be tested in real time, and binding strength is expressed in response unites (RU) (a change in concentration of binding substances on the chip surface by 1 pg/mm2 is defined as 1 RU). The compounds I to III are screened by Biacore technology, and a binding constant KD of small molecular compounds with RXRalpha-LBD is calculated based on a concentration gradient experiment.

binding mode to RXRalpha protein (RXRalpha-LBD protein): fast binding and fast dissociation mode | Kd (RXRalpha-LBD protein; concentration gradient, read-out: binding constant KD with RXRalpha-LBD): 12.3 µM
SMILES: C=C1CCC2C(C)(C)CCC[C@]2(C)[C@H]1Cc1cc(O)c(C)c2sc(C(=O)NCC(=O)O)nc12 (stereo partly drawn) [compound I, meroterpenthiazole A]
inhibition of the transcription of RXRalpha by 9-cis-RA (RXRalpha): inhibit the transcription of RXRalpha by 9-cis-RA in a concentration-dependent manner
